ChEMBL document CHEMBL5055685, “Discovery of the First Potent IDO1/IDO2 Dual Inhibitors: A Promising Strategy for Cancer Immunotherapy” (J Med Chem, 2021)
Activity calls are given as the source filed them. The calls are words filed in the database; no cut-off is given here.

Tests used:
[1] = Metabolic stability in monkey liver microsomes assessed as rate constant; format: ADME, Macaca mulatta, Microsome; conditions: rhesus monkey
[2] = biological target: Dual specificity mitogen-activated protein kinase kinase 2 (Homo sapiens) (UniProt P36507); test: Inhibition of MEK2 (unknown origin) at 1 uM
Dual specificity mitogen-activated protein kinase kinase 2 (Homo sapiens), sequence (P36507 whole entry): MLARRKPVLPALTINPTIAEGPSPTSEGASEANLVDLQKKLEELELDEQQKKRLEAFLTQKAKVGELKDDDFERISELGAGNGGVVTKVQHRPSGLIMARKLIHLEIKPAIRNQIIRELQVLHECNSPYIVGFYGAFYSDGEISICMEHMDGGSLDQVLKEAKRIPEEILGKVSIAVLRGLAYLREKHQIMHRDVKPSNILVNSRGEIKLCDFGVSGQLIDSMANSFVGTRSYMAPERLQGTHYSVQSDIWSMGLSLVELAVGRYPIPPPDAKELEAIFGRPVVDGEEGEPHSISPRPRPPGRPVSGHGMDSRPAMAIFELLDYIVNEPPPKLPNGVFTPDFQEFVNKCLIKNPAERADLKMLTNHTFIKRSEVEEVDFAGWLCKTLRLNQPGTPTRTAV

[3] = biological target: Receptor-interacting serine/threonine-protein kinase 3 (Homo sapiens) (UniProt Q9Y572); test: Inhibition of RIPK3 (unknown origin) at 1 uM
Receptor-interacting serine/threonine-protein kinase 3 (Homo sapiens), sequence (Q9Y572 whole entry, looked up): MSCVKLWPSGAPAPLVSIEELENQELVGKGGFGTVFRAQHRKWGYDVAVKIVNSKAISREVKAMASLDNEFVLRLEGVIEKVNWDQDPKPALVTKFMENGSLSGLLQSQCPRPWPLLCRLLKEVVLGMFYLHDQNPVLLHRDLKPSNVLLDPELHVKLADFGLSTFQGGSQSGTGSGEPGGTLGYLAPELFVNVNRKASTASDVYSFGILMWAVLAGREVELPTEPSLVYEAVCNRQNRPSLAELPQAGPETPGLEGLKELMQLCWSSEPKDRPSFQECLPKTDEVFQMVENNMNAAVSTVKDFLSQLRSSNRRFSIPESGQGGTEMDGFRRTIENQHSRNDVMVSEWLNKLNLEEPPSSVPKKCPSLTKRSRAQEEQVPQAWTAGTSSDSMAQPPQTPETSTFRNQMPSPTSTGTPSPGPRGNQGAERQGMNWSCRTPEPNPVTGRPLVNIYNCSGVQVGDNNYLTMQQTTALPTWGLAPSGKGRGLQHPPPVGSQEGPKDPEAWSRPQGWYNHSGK

[4] = biological target: Citron Rho-interacting kinase (Homo sapiens) (UniProt O14578); test: Inhibition of STK21 (unknown origin) at 1 uM
[5] = biological target: Serine/threonine-protein kinase TAO1 (Homo sapiens) (UniProt Q7L7X3); test: Inhibition of TAOK1 (unknown origin) at 1 uM
Serine/threonine-protein kinase TAO1 (Homo sapiens), sequence (Q7L7X3 whole entry): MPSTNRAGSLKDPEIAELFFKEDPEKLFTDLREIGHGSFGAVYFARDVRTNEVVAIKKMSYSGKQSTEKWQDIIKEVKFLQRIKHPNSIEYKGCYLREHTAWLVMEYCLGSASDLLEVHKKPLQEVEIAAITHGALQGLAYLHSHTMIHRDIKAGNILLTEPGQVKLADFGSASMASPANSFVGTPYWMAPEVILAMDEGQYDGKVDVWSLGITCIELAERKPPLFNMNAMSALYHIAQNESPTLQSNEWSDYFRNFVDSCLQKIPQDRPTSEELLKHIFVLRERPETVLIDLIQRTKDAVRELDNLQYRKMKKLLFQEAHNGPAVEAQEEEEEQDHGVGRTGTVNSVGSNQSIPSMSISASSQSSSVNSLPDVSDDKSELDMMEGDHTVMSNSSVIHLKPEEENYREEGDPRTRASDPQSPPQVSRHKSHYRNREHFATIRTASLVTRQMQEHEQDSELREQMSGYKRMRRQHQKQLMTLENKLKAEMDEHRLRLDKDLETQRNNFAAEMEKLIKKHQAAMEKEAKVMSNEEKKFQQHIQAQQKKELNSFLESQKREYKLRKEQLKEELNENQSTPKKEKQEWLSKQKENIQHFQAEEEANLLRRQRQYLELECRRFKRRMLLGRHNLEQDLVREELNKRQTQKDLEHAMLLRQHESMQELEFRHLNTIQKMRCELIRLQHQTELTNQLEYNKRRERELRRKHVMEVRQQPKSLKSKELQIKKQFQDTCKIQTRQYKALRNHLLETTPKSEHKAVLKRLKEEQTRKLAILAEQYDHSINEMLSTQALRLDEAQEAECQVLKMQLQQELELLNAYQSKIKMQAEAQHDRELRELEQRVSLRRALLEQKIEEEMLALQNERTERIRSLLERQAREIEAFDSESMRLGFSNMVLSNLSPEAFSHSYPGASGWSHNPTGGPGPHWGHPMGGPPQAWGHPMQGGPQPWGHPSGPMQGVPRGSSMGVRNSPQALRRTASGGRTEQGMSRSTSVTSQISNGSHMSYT

[6] = biological target: Serine/threonine-protein kinase D2 (Homo sapiens) (UniProt Q9BZL6); test: Inhibition of PKD2 (unknown origin) at 1 uM
Serine/threonine-protein kinase D2 (Homo sapiens), sequence (Q9BZL6 whole entry): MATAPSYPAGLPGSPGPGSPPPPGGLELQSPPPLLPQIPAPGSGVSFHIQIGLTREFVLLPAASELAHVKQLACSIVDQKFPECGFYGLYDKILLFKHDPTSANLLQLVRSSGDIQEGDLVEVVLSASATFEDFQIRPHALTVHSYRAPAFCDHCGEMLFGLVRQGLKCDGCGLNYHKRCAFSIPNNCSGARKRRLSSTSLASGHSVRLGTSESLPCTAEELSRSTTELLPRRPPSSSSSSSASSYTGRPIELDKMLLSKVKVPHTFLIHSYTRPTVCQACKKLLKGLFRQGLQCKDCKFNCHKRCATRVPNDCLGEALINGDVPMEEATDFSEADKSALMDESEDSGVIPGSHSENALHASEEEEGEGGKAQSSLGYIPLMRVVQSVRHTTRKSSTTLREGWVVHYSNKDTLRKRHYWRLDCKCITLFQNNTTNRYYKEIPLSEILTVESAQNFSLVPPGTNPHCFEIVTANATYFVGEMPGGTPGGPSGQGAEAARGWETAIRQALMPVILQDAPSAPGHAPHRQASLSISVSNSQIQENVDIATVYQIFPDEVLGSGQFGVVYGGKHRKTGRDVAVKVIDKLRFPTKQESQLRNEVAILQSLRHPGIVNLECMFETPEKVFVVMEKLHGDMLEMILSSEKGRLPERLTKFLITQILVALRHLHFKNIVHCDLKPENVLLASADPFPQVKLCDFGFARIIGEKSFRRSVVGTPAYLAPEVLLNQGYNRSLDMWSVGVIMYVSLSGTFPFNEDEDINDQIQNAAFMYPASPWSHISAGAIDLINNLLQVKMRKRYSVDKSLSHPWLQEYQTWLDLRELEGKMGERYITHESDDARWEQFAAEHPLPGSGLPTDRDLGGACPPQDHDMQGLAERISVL

[7] = biological target: Tyrosine-protein kinase SYK (Homo sapiens) (UniProt P43405); test: Inhibition of SYK (unknown origin) at 1 uM
[8] = biological target: Ephrin type-A receptor 6 (Homo sapiens) (UniProt Q9UF33); test: Inhibition of EPHA6 (unknown origin) at 1 uM
Ephrin type-A receptor 6 (Homo sapiens), sequence (Q9UF33 whole entry): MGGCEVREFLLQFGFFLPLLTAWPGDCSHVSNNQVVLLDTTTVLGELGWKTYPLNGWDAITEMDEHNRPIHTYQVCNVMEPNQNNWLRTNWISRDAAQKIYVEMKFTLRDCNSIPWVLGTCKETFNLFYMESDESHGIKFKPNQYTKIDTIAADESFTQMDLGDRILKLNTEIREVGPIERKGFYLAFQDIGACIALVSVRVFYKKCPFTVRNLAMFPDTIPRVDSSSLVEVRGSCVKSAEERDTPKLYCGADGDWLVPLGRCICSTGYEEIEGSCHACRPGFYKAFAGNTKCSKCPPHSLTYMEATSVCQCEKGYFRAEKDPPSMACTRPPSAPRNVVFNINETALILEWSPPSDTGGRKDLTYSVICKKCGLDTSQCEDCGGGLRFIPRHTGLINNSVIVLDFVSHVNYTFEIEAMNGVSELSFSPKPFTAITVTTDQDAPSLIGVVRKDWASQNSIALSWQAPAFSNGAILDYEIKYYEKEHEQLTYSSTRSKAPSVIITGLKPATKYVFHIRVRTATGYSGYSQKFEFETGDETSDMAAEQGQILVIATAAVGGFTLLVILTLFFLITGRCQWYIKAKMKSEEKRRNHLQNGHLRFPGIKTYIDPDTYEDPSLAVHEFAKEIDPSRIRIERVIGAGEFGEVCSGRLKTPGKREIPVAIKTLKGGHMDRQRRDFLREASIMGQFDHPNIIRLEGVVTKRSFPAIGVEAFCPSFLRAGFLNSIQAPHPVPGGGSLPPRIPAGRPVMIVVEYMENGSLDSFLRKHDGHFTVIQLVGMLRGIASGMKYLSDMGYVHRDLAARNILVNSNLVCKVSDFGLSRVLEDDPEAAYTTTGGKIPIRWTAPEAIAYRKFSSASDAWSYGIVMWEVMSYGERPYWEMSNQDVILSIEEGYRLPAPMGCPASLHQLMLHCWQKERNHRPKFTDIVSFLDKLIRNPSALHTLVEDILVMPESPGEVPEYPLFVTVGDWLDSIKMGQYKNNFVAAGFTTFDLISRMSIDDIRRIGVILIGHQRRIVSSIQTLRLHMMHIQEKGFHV

[9] = biological target: Homeodomain-interacting protein kinase 4 (Homo sapiens) (UniProt Q8NE63); test: Inhibition of HIPK4 (unknown origin) at 1 uM
[10] = biological target: Mitogen-activated protein kinase kinase kinase 9 (Homo sapiens) (UniProt P80192); test: Inhibition of MLK1 (unknown origin) at 1 uM
Mitogen-activated protein kinase kinase kinase 9 (Homo sapiens), sequence (P80192 whole entry, looked up): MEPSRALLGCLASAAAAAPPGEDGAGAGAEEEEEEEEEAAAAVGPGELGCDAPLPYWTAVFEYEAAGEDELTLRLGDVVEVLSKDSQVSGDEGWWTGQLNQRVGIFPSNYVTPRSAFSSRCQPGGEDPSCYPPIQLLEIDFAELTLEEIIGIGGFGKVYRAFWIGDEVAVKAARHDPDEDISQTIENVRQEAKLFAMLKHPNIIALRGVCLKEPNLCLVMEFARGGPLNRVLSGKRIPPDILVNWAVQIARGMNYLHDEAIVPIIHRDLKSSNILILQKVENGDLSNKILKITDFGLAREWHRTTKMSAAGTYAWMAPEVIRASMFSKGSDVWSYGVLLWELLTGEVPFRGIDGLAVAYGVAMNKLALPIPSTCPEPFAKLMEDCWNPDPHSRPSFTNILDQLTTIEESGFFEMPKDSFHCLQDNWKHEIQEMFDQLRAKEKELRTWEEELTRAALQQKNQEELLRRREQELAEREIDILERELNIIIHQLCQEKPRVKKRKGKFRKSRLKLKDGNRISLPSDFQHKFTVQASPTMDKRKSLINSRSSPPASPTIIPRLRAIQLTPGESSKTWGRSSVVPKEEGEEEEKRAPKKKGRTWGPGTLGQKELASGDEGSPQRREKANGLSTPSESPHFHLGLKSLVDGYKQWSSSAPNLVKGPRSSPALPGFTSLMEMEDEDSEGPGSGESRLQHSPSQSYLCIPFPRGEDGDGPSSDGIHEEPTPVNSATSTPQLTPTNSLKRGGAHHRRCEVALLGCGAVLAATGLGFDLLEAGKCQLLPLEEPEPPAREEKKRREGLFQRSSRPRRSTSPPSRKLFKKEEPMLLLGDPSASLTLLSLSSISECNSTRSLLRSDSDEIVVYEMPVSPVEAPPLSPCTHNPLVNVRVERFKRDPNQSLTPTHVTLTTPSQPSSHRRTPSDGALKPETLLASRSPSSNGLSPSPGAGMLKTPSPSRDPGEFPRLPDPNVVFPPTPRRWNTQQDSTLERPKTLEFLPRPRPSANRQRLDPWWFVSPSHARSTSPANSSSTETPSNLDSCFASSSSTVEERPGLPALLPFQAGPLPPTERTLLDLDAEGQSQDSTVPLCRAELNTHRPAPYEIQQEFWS

[11] = biological target: Death-associated protein kinase 3 (Homo sapiens) (UniProt O43293); test: Inhibition of ZIPK (unknown origin) at 1 uM

With OCCOCc1cn(CCNc2nonc2/C(=N/O)Nc2ccc(F)c(Br)c2)nn1 as the molecule, how does the k el [1] read?
The k el was 0.0003 s⁻¹.

What about the inhibition [2] of the same molecule?
Its inhibition is “inactive”.

What about the inhibition [3] of the same molecule?
Its inhibition is “inactive”.

And the inhibition [4]?
The inhibition was “inactive”.

And the inhibition [5]?
The inhibition was “inactive”.

And the inhibition [6]?
Its inhibition is “inactive”.

And the inhibition [7]?
Its inhibition is “inactive”.

What about the inhibition [8] of the same molecule?
The inhibition was “inactive”.

What about the inhibition [9] of the same molecule?
Its inhibition is “inactive”.

What about the inhibition [10] of the same molecule?
Its inhibition is “inactive”.

And the inhibition [11]?
Its inhibition is “inactive”.
